Reference: article PMC8456950, “Structure‐Guided Design of G‐Protein‐Coupled Receptor Polypharmacology” (Angewandte Chemie (International Ed. in English), 2021)

Key:
[1] = Blood-brain distribution in rats; format: in vivo; details: male, Sprague Dawley, rat, 24 mg kg^−1 IP
Description: Blood-brain distribution. Measurements of blood-brain distribution in rats were performed by Admescope (Finland). The male Sprague Dawley rats (120-157 g) were housed in air-conditioned rooms (12h dark/light cycle) at 22 °C and a humidity of 55%. Animals were allowed to acclimatize to the site for at least five days prior to the study.
Compound 30 (24 mg/kg, formulated in 17% DMSO in saline) was administered intraperitoneally and blood samples were collected at 10, 30, and 50 min after dosing. Within 30 min following the sampling, the blood was centrifuged for plasma separation (room temperature; 10 min; 2700 G). The plasma samples were transferred into plastic tubes, frozen and stored at –20 °C until analysis. Brains were perfused under terminal isoflurane anaesthesia at 10, 30 and 50 min after dosing (n=6 per time point). For the perfusion, the heart of the rat was expo sed and major veins leading to the right atrium were severed. […]
Evaluation of compound 30 in rodent model of Parkinsonism. […] Two weeks after the unilateral 6-OHDA lesion, rats were injected with apomorphine (1 mg/kg, IP; Sigma) and their contralateral rotations were measured to determine the degree of nigrostriatal denervation. […] The number of rotations was calculated automatically with Noldus EthoVision XT11. […]

Caco-2 cell permeability = format: in vitro ADME; details: human, Caco-2 monolayer
Description: forskolin (Sigma 17018) was added and incubated for 5 min at 37 °C with gentle stirring (150 rpm). Reagents (#CISBIO 62AM4PEC) were added and, after incubation for 60 min at rt with gentle stirring (90 rpm) and protected from light, homogeneous time resolved fluorescence (HTRF, λEx: 320 nm; λEm: 620-665 nm) from each well was measured using a Tecan Infinite M1000 Pro. Data were normalized to the maximum effect of dopamine. EC50 and Ema x values were obtained after fitting the d ata to a four -parameter logistic equatio n using Prism V2. 1 (Graph Pad Inc, Chicago, USA) .
Cell permeability. The Caco-2 cell permeability of compound 30 was determined by the Uppsala university optimization and pharmaceutical profiling platform (UDOPP) as described previously26. Briefly, Caco-2 cell monolayers (passage 94-105) were grown on a permeable filter support and used on day 21 after seeding. Prior to the experiment a 10 µM solution of 30 was prepared by dilution of a 10 mM stock solution in DMSO with Hank’ s balanced salt solution (HBSS; 7.4) and warmed to 37 ° C. The Caco-2 filters were washed with pre-warmed HBSS prior to the experiment, and the solution of 30 was thereafter applied on the apical or basolateral side of the monolayer. Permeability was determined at 37 ° C and at pH 7.4 in both the apical and basolateral chamber, with a stirring rate of 500 rpm. […]

concentration at 30 min ([1]; brain, at 30 min, read-out: total concentration in the brain): ~3000 nM | Kp at 0.5 h ([1]; brain/plasma, peak after 30 min, mean±SD, read-out: brain-to-plasma ratio): 0.79 ± 0.13 | Papp A→B at 60 min, 10 µM (Caco-2 cell permeability; 10 µM, pH 7.4, 37 °C, apical to basolateral): 3.8 ×10⁻⁶ cm/s | efflux ratio at 60 min, 10 µM (Caco-2 cell permeability; pH 7.4, read-out: efflux ratio (ER)): 8
SMILES: CCCN(CCCCC(=O)Nc1nc2c(OC)ccc(OC)c2s1)C1Cc2ccccc2C1 [Compound 30]
